One may read the IC50 as the concentration needed to halve the response being measured.

The values below come from ChEMBL document CHEMBL3414454, “Designing and exploring active N'-[(5-nitrofuran-2-yl) methylene] substituted hydrazides against three Trypanosoma cruzi strains more prevalent in Chagas disease patients” (Eur J Med Chem, 2015).

The nature of data set [1]: Cytotoxicity against human LL24 cells assessed as inhibition of cell growth after 24 hrs by MTT assay. The format is cell-based. To be noted: LL24, 24 h.
The subject of data set [2] is Trypanosoma cruzi. Put plainly: Anti-trypanosomal activity against Trypanosoma cruzi Bug 2149 cl10 epimastigote forms assessed as inhibition of parasite growth after 72 hrs by microplate reader based assay. The format is functional, organism-based. The conditions noted are these: for IC50: Trypanosoma cruzi, Bug 2149 cl10, CL1-0, 72 h.
Data set [3] is described as follows: Selectivity index, ratio of IC50 for human LL24 cells to IC50 for Trypanosoma cruzi Y epimastigote forms. To be noted: read-out: Ratio IC50. The format is toxicity, cell-based.
Data set [4] in a line: Selectivity index, ratio of IC50 for human LL24 cells to IC50 for Trypanosoma cruzi Silvio X10 cl1 epimastigote forms. The format is toxicity, cell-based. The conditions noted are these: read-out: Ratio IC50.
Data set [5] concerns Trypanosoma cruzi. The data set can be described thus: Anti-trypanosomal activity against Trypanosoma cruzi Silvio X10 cl1 epimastigote forms assessed as inhibition of parasite growth after 72 hrs by microplate reader based assay. The format is functional, organism-based. To be noted: for IC50: Trypanosoma cruzi, Silvio X10 cl1, 72 h.
Data set [6] has as its system Trypanosoma cruzi. The data set can be described thus: Anti-trypanosomal activity against Trypanosoma cruzi Y epimastigote forms assessed as inhibition of parasite growth after 72 hrs by microplate reader based assay. The format is functional, organism-based. The conditions noted are these: for IC50: Trypanosoma cruzi, Y, 72 h.
The nature of data set [7]: Selectivity index, ratio of IC50 for human LL24 cells to IC50 for Trypanosoma cruzi Bug 2149 cl10. The format is toxicity, cell-based. The conditions noted are these: read-out: Ratio IC50.

For the compound `O=C(N/N=C/c1ccc([N+](=O)[O-])o1)C1CCCCC1`, the IC50 in data set [1] was over 200 µM; with Trypanosoma cruzi [2], 12.8 µM; in the data set on Trypanosoma cruzi [5], 13.7 µM; in the data set with Trypanosoma cruzi [6], 14.4 µM. For the same compound, the log1/IC50 amounted to 4.89 in the data set with Trypanosoma cruzi [2], 4.86 in the data set with Trypanosoma cruzi [5] and 4.84 in the data set on Trypanosoma cruzi [6]. In addition, the selectivity ratio in data set [3] was over 14; in data set [4], over 15; in data set [7] it was over 16.
For `CCCCCC(=O)N/N=C/c1ccc([N+](=O)[O-])o1`, the IC50 in data set [1] amounted to 99 µM; with Trypanosoma cruzi [2], 12.2 µM; in the data set with Trypanosoma cruzi [5], 9.72 µM; with Trypanosoma cruzi [6], 10.2 µM. Besides, the log1/IC50 came out at 4.91 in the data set with Trypanosoma cruzi [2], 5.01 in the data set with Trypanosoma cruzi [5] and 4.99 in the data set on Trypanosoma cruzi [6]. For the same compound, the selectivity ratio worked out at 10 in data set [3], 10 in data set [4] and 8 in data set [7].
On to `CCCCCCCC(=O)N/N=C/c1ccc([N+](=O)[O-])o1`, for which the IC50 is 91 µM in data set [1], 14.4 µM in the data set with Trypanosoma cruzi [2], 14.7 µM in the data set on Trypanosoma cruzi [5] and 13.5 µM in the data set with Trypanosoma cruzi [6]. Moreover, the log1/IC50 with Trypanosoma cruzi [2] is 4.84; with Trypanosoma cruzi [5], 4.83; in the data set on Trypanosoma cruzi [6], 4.87. Besides, the selectivity ratio in data set [3] stood at 7; in data set [4], 6; in data set [7], 6.
As for `N#Cc1ccc(C(=O)N/N=C/c2ccc([N+](=O)[O-])o2)cc1`, the IC50 is over 200 µM in data set [1], 25.3 µM in the data set with Trypanosoma cruzi [2], 37.4 µM in the data set on Trypanosoma cruzi [5] and 23.1 µM in the data set on Trypanosoma cruzi [6]. The log1/IC50 with Trypanosoma cruzi [2] turned out to be 4.6; in the data set on Trypanosoma cruzi [5] it was 4.43; with Trypanosoma cruzi [6], 4.64. Further, the selectivity ratio is over 9 in data set [3], over 5 in data set [4] and over 8 in data set [7].
On to `CCCCc1ccc(C(=O)N/N=C/c2ccc([N+](=O)[O-])o2)cc1`, for which the IC50 in data set [1] was over 200 µM; in the data set with Trypanosoma cruzi [2], 4.41 µM; in the data set with Trypanosoma cruzi [5], 4.75 µM; with Trypanosoma cruzi [6], 3.1 µM. Further, the log1/IC50 came to 5.36 in the data set with Trypanosoma cruzi [2], 5.32 with Trypanosoma cruzi [5] and 5.51 in the data set on Trypanosoma cruzi [6]. In addition, the selectivity ratio in data set [3] was over 64; in data set [4], over 42; in data set [7], over 45.
For `O=C(N/N=C/c1ccc([N+](=O)[O-])o1)C1CCCC1`, the IC50 was found to be 58 µM in data set [1], 14.6 µM in the data set on Trypanosoma cruzi [2], 19.9 µM with Trypanosoma cruzi [5] and 11.9 µM with Trypanosoma cruzi [6]. Further, the log1/IC50 with Trypanosoma cruzi [2] was 4.84; in the data set with Trypanosoma cruzi [5] it was 4.7; with Trypanosoma cruzi [6], 4.93. Besides, the selectivity ratio in data set [3] turned out to be 5; in data set [4], 3; in data set [7], 4.
Regarding `CCCc1ccc(C(=O)N/N=C/c2ccc([N+](=O)[O-])o2)cc1`, the IC50 in data set [1] was found to be 89 µM; in the data set with Trypanosoma cruzi [2] it was 9.8 µM; in the data set on Trypanosoma cruzi [5], 10.3 µM; in the data set on Trypanosoma cruzi [6] it was 9.09 µM. For the same compound, the log1/IC50 is given as 5.01 in the data set on Trypanosoma cruzi [2], 4.99 in the data set on Trypanosoma cruzi [5] and 5.04 in the data set on Trypanosoma cruzi [6]. Besides, the values for the selectivity ratio in data set [3], in data set [4] and in data set [7] were 10, 9 and 9, respectively.
For `CC(C)(C)OC(=O)N/N=C/c1ccc([N+](=O)[O-])o1`, the IC50 in data set [1] is over 200 µM; with Trypanosoma cruzi [2], 12.2 µM; in the data set with Trypanosoma cruzi [5], 13.8 µM; with Trypanosoma cruzi [6], 9.41 µM. The log1/IC50 in the data set with Trypanosoma cruzi [2] came out at 4.91; in the data set with Trypanosoma cruzi [5] it was 4.86; in the data set with Trypanosoma cruzi [6] it was 5.03. Moreover, the values for the selectivity ratio in data set [3], in data set [4] and in data set [7] were over 21, over 14 and over 16, respectively.
Regarding `O=C(Cc1ccccc1)N/N=C/c1ccc([N+](=O)[O-])o1`, the IC50 in data set [1] is 97 µM; in the data set on Trypanosoma cruzi [2], 12.3 µM; with Trypanosoma cruzi [5], 20.2 µM; in the data set on Trypanosoma cruzi [6], 11 µM. Further, the log1/IC50 in the data set on Trypanosoma cruzi [2] is 4.91; in the data set with Trypanosoma cruzi [5] it was 4.69; in the data set with Trypanosoma cruzi [6], 4.96. Further, the selectivity ratio in data set [3] amounted to 8.83; in data set [4], 4.79; in data set [7] it was 7.91.
Consider `CC(C)c1ccc(C(=O)N/N=C/c2ccc([N+](=O)[O-])o2)cc1`, for which the IC50 in data set [1] is over 200 µM; in the data set on Trypanosoma cruzi [2], 9.04 µM; with Trypanosoma cruzi [5], 6.09 µM; with Trypanosoma cruzi [6], 3.91 µM. In addition, the log1/IC50 with Trypanosoma cruzi [2] came out at 5.04; in the data set on Trypanosoma cruzi [5], 5.22; in the data set with Trypanosoma cruzi [6], 5.41. The selectivity ratio in data set [3] was over 51; in data set [4], over 33; in data set [7] it was over 22.
As for `Cc1cccc(C(=O)N/N=C/c2ccc([N+](=O)[O-])o2)c1`, the IC50 in data set [1] is over 200 µM; in the data set with Trypanosoma cruzi [2], 24.8 µM; in the data set on Trypanosoma cruzi [5], 27.7 µM; in the data set on Trypanosoma cruzi [6] it was 9.89 µM. Moreover, the results for the log1/IC50 in the data set on Trypanosoma cruzi [2], in the data set on Trypanosoma cruzi [5] and in the data set on Trypanosoma cruzi [6] were 4.61, 4.56 and 5, respectively. Also, the selectivity ratio in data set [3] was over 20; in data set [4], over 7; in data set [7], over 8.
Consider `O=C(N/N=C/c1ccc([N+](=O)[O-])o1)c1ccccc1`, for which the IC50 in data set [1] was found to be 178 µM; in the data set with Trypanosoma cruzi [2] it was 14.2 µM; with Trypanosoma cruzi [5] it was 31.1 µM; with Trypanosoma cruzi [6], 12.6 µM. Also, the log1/IC50 turned out to be 4.85 with Trypanosoma cruzi [2], 4.51 with Trypanosoma cruzi [5] and 4.9 with Trypanosoma cruzi [6]. For the same compound, the results for the selectivity ratio in data set [3], in data set [4] and in data set [7] were 14, 5.72 and 12.5, respectively.
Turning to `O=C(N/N=C/c1ccc([N+](=O)[O-])o1)c1ccc(Cl)cc1`, the IC50 in data set [1] was determined as 187 µM; in the data set on Trypanosoma cruzi [2], 14.5 µM; in the data set with Trypanosoma cruzi [5], 20 µM; in the data set on Trypanosoma cruzi [6] it was 9.15 µM. The log1/IC50 with Trypanosoma cruzi [2] worked out at 4.84; in the data set with Trypanosoma cruzi [5], 4.7; in the data set with Trypanosoma cruzi [6], 5.04. For the same compound, the selectivity ratio in data set [3] stood at 20.4; in data set [4] it was 9.36; in data set [7] it was 12.9.
For the compound `CN(C)c1ccc(C(=O)N/N=C/c2ccc([N+](=O)[O-])o2)cc1`, the IC50 in data set [1] was over 200 µM; in the data set with Trypanosoma cruzi [2] it was 47.3 µM; in the data set with Trypanosoma cruzi [5] it was 100 µM; with Trypanosoma cruzi [6] it was 100 µM. Besides, the log1/IC50 is listed as 4.33 in the data set with Trypanosoma cruzi [2], 4 in the data set on Trypanosoma cruzi [5] and 4 in the data set with Trypanosoma cruzi [6]. The selectivity ratio in data set [3] is over 2; in data set [4], over 2; in data set [7], over 4.
In the case of `O=C(Cn1ccnc1[N+](=O)[O-])NCc1ccccc1` [BENZNIDAZOLE], the IC50 in data set [1] is over 200 µM; with Trypanosoma cruzi [6], 40.4 µM.
As to `O=C(N/N=C/c1ccc([N+](=O)[O-])o1)c1ccc(O)cc1` [NIFUROXAZIDE], the IC50 was over 200 µM in data set [1], 300 µM in the data set with Trypanosoma cruzi [2] and 300 µM in the data set with Trypanosoma cruzi [6]. Further, the log1/IC50 in the data set with Trypanosoma cruzi [2] and in the data set with Trypanosoma cruzi [6] was 3.52 in each case. Moreover, the selectivity ratio in data set [3] and in data set [7] was over 1 each time.
